Structures can show the parent of a compound that is named as a salt. Some results are limits rather than exact numbers.

In the experiment the target is human KV7.2/KV7.3 (Homo sapiens (Human), UniProt O43525+O43526). Put plainly: Potassium flux assay (IPG-2 AM dye). The experiment is classed as cell-based. To be noted: TREX HEK 293 or HEK 293 cells expressing human KV7.2/KV7.3; arithmetic mean values. The source says:
This potassium flux assay employs the cell-permeable, potassium-sensitive dye, IPG-2 AM, to quantify potassium ion flux through potassium channels.
In general, TREX HEK 293 or HEK 293 cells were stably transfected with either an inducible or non-inducible expression vector containing the full-length cDNA coding for the desired human KV7.2/KV7.3 or in combination with another full-length cDNA for a second desired human KV7 potassium channel. Potassium channel-expressing cell lines were induced with tetracycline (1 μg/mL), if required, and plated on 384-well poly-D-lysine (PDL)-coated plates in culture media (DMEM, containing 10% FBS and 1% L-glutamine). After overnight incubation, culture media was removed and cells were loaded with 5 μM IPG-2 AM dye for 1 hour in Assay buffer (140 mM NaCl, 20 mM RbCl, 2 mM CaCl2, 1 mM MgCl2, 10 mM HEPES (4-(2-hydroxyethyl)-1-piperazineethanesulfonic acid buffer), 10 mM glucose, adjusted with Tris to pH 7.4). Excess dye was removed, and cells incubated at room temperature for 20 minutes with or without test compound. A Hamamatsu FDSS μCell was used to perform a 1:1 addition of K challenge buffer (150 mM NaCl, 10 mM HEPES, 2 mM CaCl2, 10 mM KCl, 1 mM MgCl2, 10 mM glucose, adjusted with Tris to pH 7.4 for human KV7.2/KV7.3, and simultaneously read plates at excitation wavelength of 530 nm and emission wavelength of 558 nm. Non-potassium channel-mediated potassium influx was determined in the presence of DMSO, and maximal influx was determined in the presence of a known KV7.x channel modulator. For each test compound, a concentration response curve was generated with 16 concentrations points, 2-fold serial dilution starting at 30 μM and an EC50 value was determined.
Usually EC50 stands for the concentration giving half of the maximal effect. As for `Clc1ccc(Nc2nccc3cc(O[C@@H]4CCOC4)ccc23)cn1` [Example 297, (R)-N-(6-chloropyridin-3-yl)-6-((tetrahydrofuran-3-yl)oxy)isoquinolin-1-amine trifluoroacetate], the EC50 is less than 1 µM.

`O=c1cc[nH]n1CCOc1ccc2c(Nc3ccc(Cl)nc3)nccc2c1` [Example 75, 2-(2-((1-((6-chloropyridin-3-yl)amino)isoquinolin-6-yl)oxy)ethyl)-1,2-dihydro-3H-pyrazol-3-one]: the half-maximal effective concentration (EC50) lay within 1 to 10 µM.

As to `COCCNC(=O)c1ccc2c(Nc3ccc(Cl)nc3)nccc2c1` [Example 418], the half-maximal effective concentration (EC50) fell in the range of 10 to 30 µM.

As to `C[C@H](Oc1ccc2c(Nc3ccc(Cl)nc3)nccc2c1)c1cnn(C)c1` [Example 172, (S)—N-(6-chloropyridin-3-yl)-6-(1-(1-methyl-1H-pyrazol-4-yl)ethoxy)isoquinolin-1-amine], the EC50 is less than 1 µM.

As to `Clc1ccc(Nc2nccc3cc(O[C@H]4CCC5(COC5)C4)ccc23)cn1` [Example 135, (S)-6-((2-oxaspiro[3.4]octan-6-yl)oxy)-N-(6-chloropyridin-3-yl)isoquinolin-1-amine], the EC50 was less than 1 µM.

With `Cc1ncc(Nc2nccc3cc(OCc4ccncc4)ccc23)cn1` [Example 199, N-(2-methylpyrimidin-5-yl)-6-(pyridin-4-ylmethoxy)isoquinolin-1-amine], the EC50 lay within 1 to 10 µM.

Regarding `Cc1ccc(Nc2nccc3cc(OCC4(F)CC4)ccc23)cn1` [Example 190, 6-((1-fluorocyclopropyl)methoxy)-N-(6-methylpyridin-3-yl)isoquinolin-1-amine], the EC50 fell in the range of 1 to 10 µM.

Consider `O[C@@H]1CCC[C@H](Oc2ccc3c(Nc4ccc(Cl)nc4)nccc3c2)C1` [Example 346, (1R,3S)-3-((1-((6-chloropyridin-3-yl)amino)isoquinolin-6-yl)oxy)cyclohexan-1-ol], for which the EC50 was less than 1 µM.

As to `Clc1ncc(Nc2nccc3cc(OC[C@H]4COCCO4)ccc23)cn1` [Example 382, (R)-6-((1,4-dioxan-2-yl)methoxy)-N-(2-chloropyrimidin-5-yl)isoquinolin-1-amine], the concentration for a half-maximal effect (EC50) is less than 1 µM.

On to `O=C(C1CC1)N1CCC(Oc2ccc3c(Nc4ccc(Cl)nc4)nccc3c2)CC1` [Example 121, (4-((1-((6-chloropyridin-3-yl)amino)isoquinolin-6-yl)oxy)piperidin-1-yl)(cyclopropyl)methanone], for which the EC50 is 1 to 10 µM.

As to `CC(Oc1ccc2c(Nc3ccc(Cl)nc3)nccc2c1)c1cn[nH]c1` (stereo not shown) [Example 335, 6-(1-(1H-pyrazol-4-yl)ethoxy)-N-(6-chloropyridin-3-yl)isoquinolin-1-amine], the half-maximal effective concentration (EC50) lay within 1 to 10 µM.

Consider `Clc1ccc(Nc2nccc3cc(OCCN4CC5(CCO5)C4)ccc23)cn1` [Example 70, 6-(2-(1-oxa-6-azaspiro[3.3]heptan-6-yl)ethoxy)-N-(6-chloropyridin-3-yl)isoquinolin-1-amine], for which the EC50 is 10 to 30 µM.

In the case of `Cc1n[nH]c(C)c1COc1ccc2c(Nc3ccc(Cl)nc3)nccc2c1` [Example 338, N-(6-chloropyridin-3-yl)-6-((3,5-dimethyl-1H-pyrazol-4-yl)methoxy)isoquinolin-1-amine], the EC50 fell in the range of 1 to 10 µM.

Take `Clc1ccc(Nc2nccc3cc(OCc4ccncc4)ccc23)cn1` [Example 192, N-(6-chloropyridin-3-yl)-6-(pyridin-4-ylmethoxy)isoquinolin-1-amine]: the EC50 is less than 1 µM.

With `Fc1ccc2c(Nc3ccc(Cl)nc3)nccc2c1` [Example 18, N-(6-chloropyridin-3-yl)-6-fluoroisoquinolin-1-amine formate], the EC50 is 1 to 10 µM.

Turning to `C[C@](O)(COc1ccc2c(Nc3ccc(Cl)nc3)nccc2c1)C(F)(F)F` [Example 225, (S)-3-((1-((6-chloropyridin-3-yl)amino)isoquinolin-6-yl)oxy)-1,1,1-trifluoro-2-methylpropan-2-ol], the EC50 is 1 to 10 µM.

Take `CO[C@H]1CC[C@H](Oc2ccc3c(Nc4ccc(Cl)nc4)nccc3c2)CC1` [Example 105, N-(6-chloropyridin-3-yl)-6-(((1r,4r)-4-methoxycyclohexyl)oxy)isoquinolin-1-amine]: the EC50 is 10 to 30 µM.

With `FC(F)(F)CN1CC(Oc2ccc3c(Nc4ccc(Cl)nc4)nccc3c2)C1` [Example 325, N-(6-chloropyridin-3-yl)-6-((1-(2,2,2-trifluoroethyl)azetidin-3-yl)oxy)isoquinolin-1-amine], the EC50 was 1 to 10 µM.

On to `Clc1ccc(Nc2nccc3cc(OCCC4CC4)ccc23)cn1` [Example 180, N-(6-chloropyridin-3-yl)-6-(2-cyclopropylethoxy)isoquinolin-1-amine], for which the EC50 fell in the range of 10 to 30 µM.

`Oc1ccc2c(Nc3ccc(Cl)nc3)nccc2c1` [Example 69, 1-((6-chloropyridin-3-yl)amino)isoquinolin-6-ol]: the EC50 is 10 to 30 µM.

In the case of `Clc1ccc(Nc2nccc3cc(OCc4cnn5c4CCCC5)ccc23)cn1` [Example 285], the EC50 is 1 to 10 µM.

As for `COC1(COc2ccc3c(Nc4cnc(C)nc4)nccc3c2)COC1` [Example 219, 6-((3-methoxyoxetan-3-yl)methoxy)-N-(2-methylpyrimidin-5-yl)isoquinolin-1-amine formate], the EC50 lay within 1 to 10 µM.

On to `Cn1cc(COc2cnc3c(Nc4cnc(Cl)nc4)nccc3c2)cn1` [Example 253, N-(2-chloropyrimidin-5-yl)-3-((1-methyl-1H-pyrazol-4-yl)methoxy)-1,7-naphthyridin-8-amine], for which the EC50 is less than 1 µM.

`Cc1ncc(Nc2nccc3cc(OCC4CC4)ccc23)cn1` [Example 24, 6-(cyclopropylmethoxy)-N-(2-methylpyrimidin-5-yl)isoquinolin-1-amine]: the EC50 is 1 to 10 µM.

As for `Clc1ccc(Nc2nccc3scnc23)cn1` [Example 13, N-(6-chloropyridin-3-yl)thiazolo[4,5-c]pyridin-4-amine], the EC50 lay in the range of 1 to 10 µM.

In the case of `FC(F)n1cc(COc2ccc3c(Nc4ccc(Cl)nc4)nccc3c2)cn1` [Example 279, N-(6-chloropyridin-3-yl)-6-((1-(difluoromethyl)-1H-pyrazol-4-yl)methoxy)isoquinolin-1-amine], the EC50 is less than 1 µM.

Consider `Cc1ncc(Nc2nccc3cc(OCC4(C#N)COC4)ccc23)cn1` [Example 228, 3-(((1-((2-methylpyrimidin-5-yl)amino)isoquinolin-6-yl)oxy)methyl)oxetane-3-carbonitrile], for which the EC50 was 1 to 10 µM.

As to `COC1(COc2ccc3c(Nc4cnc(C)nc4)nccc3c2)CC1` [Example 178, 6-((1-methoxycyclopropyl)methoxy)-N-(2-methylpyrimidin-5-yl)isoquinolin-1-amine], the EC50 lay in the range of 1 to 10 µM.

As to `CC1(C)CC[C@H](COc2ccc3c(Nc4ccc(Cl)nc4)nccc3c2)O1` [Example 416, (R)-N-(6-chloropyridin-3-yl)-6-((5,5-dimethyltetrahydrofuran-2-yl)methoxy)isoquinolin-1-amine], the half-maximal effective concentration (EC50) was in the range of 1 to 10 µM.

As for `FC1(COc2ccc3c(Nc4cncc(Cl)c4)nccc3c2)CC1` [Example 48, N-(5-chloropyridin-3-yl)-6-((1-fluorocyclopropyl)methoxy)isoquinolin-1-amine], the EC50 is 1 to 10 µM.

Take `CC(CN1CCOCC1)Oc1ccc2c(Nc3ccc(Cl)nc3)nccc2c1` (stereo not shown) [Example 109, N-(6-chloropyridin-3-yl)-6-((1-morpholinopropan-2-yl)oxy)isoquinolin-1-amine]: the 50% effective concentration (EC50) was 1 to 10 µM.

Take `Clc1ccc(Nc2nccc3cc(OC4CCN(Cc5ccccc5)CC4)ccc23)cn1` [Example 90, 6-((1-benzylpiperidin-4-yl)oxy)-N-(6-chloropyridin-3-yl)isoquinolin-1-amine trifluoroacetate]: the EC50 was 1 to 10 µM.

`CC1(COc2ccc3c(Nc4ccc(Cl)nc4)nccc3c2)CS(=O)(=O)C1` [Example 293, 3-(((1-((6-chloropyridin-3-yl)amino)isoquinolin-6-yl)oxy)methyl)-3-methylthietane 1,1-dioxide]: the EC50 is less than 1 µM.

For the molecule `Clc1ccc(Nc2nccc3cc(OC4CC5CCC(C4)N5Cc4ccccc4)ccc23)cn1` (stereo not shown) [Example 97, 6-((8-benzyl-8-azabicyclo[3.2.1]octan-3-yl)oxy)-N-(6-chloropyridin-3-yl)isoquinolin-1-amine], the EC50 lay within 10 to 30 µM.

In the case of `FC(F)COc1ccc2c(Nc3cnc(Cl)nc3)nccc2c1` [Example 66, N-(2-chloropyrimidin-5-yl)-6-(2,2-difluoroethoxy)isoquinolin-1-amine], the concentration giving a half-maximal response (EC50) is less than 1 µM.

In the case of `O[C@@H]1CCC[C@@H](Oc2ccc3c(Nc4ccc(Cl)nc4)nccc3c2)C1` (relative stereo) [Example 354, trans-3-((1-((6-chloropyridin-3-yl)amino)isoquinolin-6-yl)oxy)cyclohexan-1-ol], the half-maximal effective concentration (EC50) was less than 1 µM.

Take `Clc1ccc(Nc2nccc3ccsc23)cn1` [Example 12, N-(6-chloropyridin-3-yl)thieno[2,3-c]pyridin-7-amine]: the EC50 fell in the range of 1 to 10 µM.

These data come from patent publication US20240101531A1, “PYRIDINAMINE DERIVATIVES AND THEIR USE AS POTASSIUM CHANNEL MODULATORS” (Xenon Pharmaceuticals Inc., priority 2022, published 2024).
